Measured values reported in patent US20110039763A1, “TARGETED ANTIMICROBIAL MOIETIES” (C3 JIAN, INC., priority 2009, published 2011).
“Also recorded” adds a separate entry of the source. Bridge positions count the residues as written; N and C are the ends. Square brackets hold non-standard residues; d marks the D form. Ends that are not written are not given here. Peptide text beside a SMILES is read from it. I, II: the chains in the order shown. Aoc = NCCCCCCCC(=O)O

Legend:
S. mutans [1] = experiment: Post-antibiotic effect assay, S. mutans; type: cell-based, Streptococcus mutans; details: S. mutans monoculture; peptide 10 min, then fresh medium; FIG. 17A
Procedure: The activity and selectivity of MH-STAMPs after a 10 min incubation was determined by growth retardation experiments against targeted and untargeted bacteria in monocultures, as described previously (Id.). Cells from overnight cultures were diluted to ˜5×10^6 cfu/mL in MH (or TH with 1% sucrose for S. mutans), normalized by OD600 0.05-0.1 and seeded to 96-well plates. Cultures were then grown under the appropriate conditions for 2 h (3 h for S. mutans) prior to the addition of peptides for 10 min. Plates were then centrifuged at 3000×g for 5 min, the supernatants discarded, fresh medium returned (MH or TH without sucrose for S. mutans), and incubation resumed. Bacterial growth after treatment was then monitored over time by OD600.
MH-STAMP antimicrobial kinetics was ascertained utilizing a variation of the classical post-antibiotic effect assay, which measures the ability of an agent to affect an organism's growth after a short exposure period. Monocultures of MH-STAMP-targeted and untargeted organisms were exposed to M8(KH)-20, M8(BL)-20, BL(KH)-20, or unmodified BD2.20, then allowed to recover. […] Furthermore, replacement of the targeting region with a non-binding peptide abolishes specific activity.

[2] = tested on: Mixed planktonic populations of P. aeruginosa, E. coli, S. epidermidis, and S. mutans; experiment: Microbial population shift assay; type: cell-based; details: mixed culture, 10 μM peptide, 24 h, detection limit 200 cfu/mL, FIG. 18
Procedure: Peptide (10 μM) or mock-treatment (1×PBS) was then added and samples were incubated at 37° C. for 24 h under anaerobic conditions (80% N2, 15% CO2, 5% H2). […] Plates were then incubated 37° C. under aerobic conditions (TH plates were incubated anaerobically) and colonies counted after 24 h to determine survivors. […] Gram stains and direct microscopic observation (from select isolated colonies) were undertaken to confirm species identity (data not shown). The detection limit of the assay was 200 cfu/mL.
We hypothesized that potential MH-STAMP dual-functionality could affect a particular set of bacteria within a mixed population, thereby promoting the outgrowth of non-targeted organisms and “shifting” the constituent makeup. To examine this possibility, defined mixed populations of planktonic cells were treated continuously and the make-up of the community examined after 24 h.

microorganisms [3] = experiment: Targeting peptide binding to target microorganisms (Tables 3, 10, 12); details: microorganism(s) the targeting peptide binds, preferably 1x PBS
C. difficile = experiment: MIC test / antimicrobial activity, C. difficile; type: cell-based, Clostridium difficile
Procedure: (§1) The active AMPs, STAMPs and the like can be identified and/or validated using an in vitro screening assay.
(§2) It will be appreciated that other assays as are well known in the art or that will become apparent to those having skill in the art upon review of this disclosure may also be used to identify active AMPs. Such assays include, for example, the assay described in Lehrer et al. (1988) J. Immunol.
(§3) Peptides were evaluated for basic antimicrobial activity by broth microdilution, as described previously (Eckert et al. (2006) Antimicrob Agents Chemother., 50: 3651-3657; Eckert et al. (2006) Antimicrob Agents Chemother., 50: 1480-1488). Briefly, ˜1×10^5 cfu/mL bacteria were diluted in TH (S. mutans), or Mueller-Hinton (MH) broth (all other organisms) and distributed to 96-well plates. Serially-diluted (2-fold) peptides were then added and the plates incubated at 37° C. for 18-24 h. […] All experiments were conducted 10 times.

microorganisms [4] = experiment: Peptide activities: targeting/binding, antimicrobial, growth or phenotype altering (Tables 7, 8); type: cell-based; details: peptides having multiple activities
microorganisms [5] = experiment: Morphology, biofilm and growth disrupting peptides (Table 5); type: cell-based; parameters: key: A: Peptide aggregates; B: Less hyphal formation; Clumps; Diffuse clumps and small polyps; F: Diffuse growth; H: Thin; I: Growth inhibition; Microcolony formation; Rippled; Small polyps; Thick; W: Halo formation on top, microlonies on bottom
Text: In certain embodiments peptides that induce alterations in phenotype or other biological activities can also be used as antimicrobial effector moieties.

MRSA = experiment: MIC test / antimicrobial activity, MRSA; type: cell-based, Methicillin-resistant Staphylococcus aureus
Procedure: as §1, §2, §3

P. aeruginosa = experiment: MIC test (broth microdilution) / antimicrobial activity, P. aeruginosa; type: cell-based, Pseudomonas aeruginosa; details: P. aeruginosa
Procedure: as §1, §2, §3

S. mutans [6] = experiment: MIC test (broth microdilution) / antimicrobial activity, S. mutans; type: cell-based, Streptococcus mutans
Procedure: as §1, §2, §3

S. epidermidis = experiment: MIC test (broth microdilution) / antimicrobial activity, S. epidermidis; type: cell-based, Staphylococcus epidermidis; details: S. epidermidis
Procedure: as §1, §2, §3

A. baumannii = experiment: MIC test / antimicrobial activity, A. baumannii; type: cell-based, Acinetobacter baumannii
Procedure: as §1, §2, §3

T. rubrum = experiment: MIC test / antimicrobial activity, T. rubrum; type: cell-based, Trichophyton rubrum
Procedure: as §1, §2, §3

C. albicans = experiment: MIC test / antimicrobial activity, C. albicans; type: cell-based, Candida albicans
Procedure: as §1, §2, §3

B. subtilis = experiment: MIC test / antimicrobial activity, B. subtilis; type: cell-based, Bacillus subtilis; details: B. subtilis
Procedure: as §1, §2, §3

S. mutans [7] = experiment: Anti-S. mutans STAMP activity in vitro, incl. formulations; type: cell-based, Streptococcus mutans
Text: During the course of evaluating STAMPs, antimicrobial peptides (AMPs), and binding peptides for desired activity, it was discovered that certain formulations can attenuate or promote peptide activity, as compared to activity levels in a default buffer system (1×PBS). In some cases, 1×PBS may provide the best level of activity. Below are a number of formulations that alter, or may alter, peptide or STAMP activity. For complex buffer systems, assume the base solvent is water unless otherwise stated.
All show potent selective activity against their bacterial targets in vitro, including against biofilm forms. When tested, STAMPs have little cytotoxicity against cell lines in vitro.
It was a surprising discovery that certain anti-S. mutans STAMPs required a salt in the formulation (e.g., PBS) for optimum activity. […] Suitable PBS formulations ranged from 0.5×PBS to about 2.5×PBS with an activity optimum at about 1×PBS. Similar results are believed to obtain for other anti-S. mutans STAMPS as well as a number of other STAMPs. In certain embodiments STAMP stability in solution was improved by inclusion of fluoride in mouthrinse.

[8] = binding in aqueous buffers varied with peptide solubility

## CC[C@H](C)[C@H](NC(=O)[C@H](Cc1ccccc1)NC(=O)CCCCCCCNC(=O)[C@H](CCCCNC(=O)CNC(=O)CNC(=O)CNC(=O)[C@H](C)NC(=O)[C@H](CCC(=O)O)NC(=O)[C@H](CC(N)=O)NC(=O)[C@H](C)NC(=O)[C@H](C)NC(=O)[C@@H](N)CC(=O)O)NC(=O)CNC(=O)CNC(=O)CNC(=O)[C@H](CCCNC(=N)N)NC(=O)[C@H](CC(N)=O)NC(=O)[C@H](CC(C)C)NC(=O)[C@H](Cc1ccccc1)NC(=O)[C@H](CCCNC(=N)N)NC(=O)[C@H](Cc1ccccc1)NC(=O)[C@H](Cc1ccccc1)NC(=O)[C@@H](NC(C)=O)[C@@H](C)O)C(=O)N[C@@H](CCCNC(=N)N)C(=O)N[C@@H](CCCCN)C(=O)N[C@@H](Cc1ccccc1)C(=O)N[C@@H](CC(C)C)C(=O)N[C@@H](CCCCN)C(=O)N[C@@H](CCCCN)C(=O)N[C@@H](Cc1c[nH]c2ccccc12)C(=O)N[C@@H](CC(C)C)C(=O)N[C@@H](CC(C)C)C(N)=O [M8(BL)-20] (I: Ac-TFFRFLNRGGGK[Aoc]FIRKFLKKWLL-NH2 / II: H-DAANEAGGG; amide I:12-II:C)
S. mutans [1]
  growth after treatment (culture recovery, OD600): effectively retarded
[2]; input ~0.5×10^4 cfu/mL
  surviving P. aeruginosa: not affected or affected to a lesser extent
[2]; input ~2×10^4 cfu/mL
  surviving E. coli: not affected or affected to a lesser extent
  surviving S. epidermidis: not affected or affected to a lesser extent
[2]; input ~6×10^4 cfu/mL
  surviving S. mutans: greatly reduced compared to input cfu/mL

## FELVDWLETNLGKILKSKSA-NH2 [PF-522]
Microorganisms [3]; [8]
  Target(s): S. epidermidis; also recorded: E. coli; also recorded: P. aeruginosa; also recorded: S. pneumoniae; also recorded: E. faecalis
C. difficile
  Organism MIC (μM): C. difficile, 25 μM
Microorganisms [4]
  Activities: G B M
Microorganisms [5]; S. pneumoniae
  Organism, effect: S. pneumoniae (H)

## FIRKFLQKLHL [K-16]
MRSA
  Organism MIC (μM): MRSA, 25 μM
P. aeruginosa
  Organism MIC (μM): P. aeruginosa, 12.5 μM
S. mutans [6]
  Organism MIC (μM): S. mutans, 8 μM

## KFQGEFTNIGQSYIVSASHMSTSLNTGK [PF-583]
S. epidermidis
  Organism MIC (μM): S. epidermidis, 50 μM
MRSA
  Organism MIC (μM): MRSA, 50 μM
Microorganisms [4]
  Activities: G B M
Microorganisms [5]; MRSA
  Organism, effect: MRSA (I)
Microorganisms [5]; S. epidermidis
  Organism, effect: S. epidermidis (I)
Microorganisms [5]; S. mutans
  Organism, effect: S. mutans (F)
Microorganisms [5]; S. pneumoniae
  Organism, effect: S. pneumoniae (D)

## KNKKQTDILEKVKEILDKKKKTKSVGQKLY [PF-538]
A. baumannii
  Organism MIC (μM): A. baumannii, 25 μM
C. difficile
  Organism MIC (μM): C. difficile, 25 μM
Microorganisms [4]
  Activities: G M
Microorganisms [5]; S. pneumoniae
  Organism, effect: S. pneumoniae (H)

## LSLATFAKIFMTRSNWSLKRFNRL [PF-278]
T. rubrum
  Organism MIC (μM): T. rubrum, 50 μM
S. epidermidis
  Organism MIC (μM): S. epidermidis, 50 μM
Microorganisms [3]; [8]
  Target(s): M. luteus; also recorded: A. baumannii
C. albicans
  Organism MIC (μM): C. albicans, 50 μM
Microorganisms [4]
  Activities: G B M
Microorganisms [5]
  Organism, effect: C. albicans: C. albicans (B)
  Organism, effect: M. luteus: M. luteus (R)
Microorganisms [5]; S. epidermidis
  Organism, effect: S. epidermidis: S. epidermidis (I)

## MGIIAGIIKFIKGLIEKFTGK [PF-006]
MRSA
  Organism MIC (μM): MRSA, 50 μM
A. baumannii
  Organism MIC (μM): A. baumannii, 50 μM
Microorganisms [3]; binding in aqueous buffers that varied with peptide solubility
  Target(s): S. epidermidis and M. luteus and E. coli and P. aeruginosa and MRSA and E. faecalis and C. jeikeium and C. jejuni
B. subtilis
  Organism MIC (μM): B. subtilis, 25 μM
Microorganisms [4]
  Activities: G B M
Microorganisms [5]
  Organism, effect: B. subtilis: B. subtilis (I)
  Organism, effect: M. luteus: M. luteus (A)
Microorganisms [5]; C. jejuni
  Organism, effect: C. jejuni: C. jejuni (D)
Microorganisms [5]; MRSA
  Organism, effect: MRSA: MRSA (I)
Microorganisms [5]; S. epidermidis
  Organism, effect: S. epidermidis: S. epidermidis (D)
Microorganisms [5]; S. pneumoniae
  Organism, effect: S. pneumoniae: S. pneumoniae (R)

## MIRIRSPTKKKLNRNSISDWKSNTSGRFFY [PF-283]
T. rubrum
  Organism MIC (μM): T. rubrum, 50 μM
S. epidermidis
  Organism MIC (μM): S. epidermidis, 50 μM
Microorganisms [3]; [8]
  Target(s): B. subtilis; also recorded: B. fragilis; also recorded: C. difficile
B. subtilis
  Organism MIC (μM): B. subtilis, 50 μM
Microorganisms [4]
  Activities: G B M
Microorganisms [5]
  Organism, effect: B. subtilis: B. subtilis (H)
Microorganisms [5]; S. epidermidis
  Organism, effect: S. epidermidis: S. epidermidis (H)

## MKRRRCNWCGKLFYLEEKSKEAYCCKECRKKAKKVKK [PF-307]
T. rubrum
  Organism MIC (μM): T. rubrum, 50 μM
Microorganisms [3]; [8]
  Target(s): S. epidermidis; also recorded: B. subtilis; also recorded: B. fragilis; also recorded: C. difficile
B. subtilis
  Organism MIC (μM): B. subtilis, 50 μM
C. albicans
  Organism MIC (μM): C. albicans, 50 μM
Microorganisms [4]
  Activities: G B M
Microorganisms [5]
  Organism, effect: B. subtilis: B. subtilis (H)
  Organism, effect: C. albicans: C. albicans (B)
Microorganisms [5]; S. epidermidis
  Organism, effect: S. epidermidis: S. epidermidis (T)

## SKFKVLRKIIIKEYKGELMLSIQKQR [PF-530]
A. baumannii
  Organism MIC (μM): A. baumannii, 25 μM
Microorganisms [4]
  Activities: G M
Microorganisms [5]; E. coli
  Organism, effect: E. coli (R)
Microorganisms [5]; E. faecalis
  Organism, effect: E. faecalis (C)
Microorganisms [5]; MRSA
  Organism, effect: MRSA (C)
Microorganisms [5]; S. epidermidis
  Organism, effect: S. epidermidis (H)
Microorganisms [5]; S. pneumoniae
  Organism, effect: S. pneumoniae (R)

## TFFRLFNRSFTQALGKGGGKNLRIIRKGIHIIKKY* [C16G2]
S. mutans [7]; phosphate buffered saline (PBS) formulation, 0.5×PBS to about 2.5×PBS, optimum at about 1×PBS
  STAMP activity in formulation: active
S. mutans [7]; water-based salt-free buffers and nanoemulsions
  STAMP activity in formulation: substantially inactive
